The results in this text go back to ChEMBL document CHEMBL1909046, “DrugMatrix in vitro pharmacology data”.

The target of test [1] is T1, Alpha-1D adrenergic receptor (Homo sapiens, UniProt P25100). Note: in other assays of this panel Not Active means under 50% inhibition at 10 µM.
T1 sequence (P25100 whole entry): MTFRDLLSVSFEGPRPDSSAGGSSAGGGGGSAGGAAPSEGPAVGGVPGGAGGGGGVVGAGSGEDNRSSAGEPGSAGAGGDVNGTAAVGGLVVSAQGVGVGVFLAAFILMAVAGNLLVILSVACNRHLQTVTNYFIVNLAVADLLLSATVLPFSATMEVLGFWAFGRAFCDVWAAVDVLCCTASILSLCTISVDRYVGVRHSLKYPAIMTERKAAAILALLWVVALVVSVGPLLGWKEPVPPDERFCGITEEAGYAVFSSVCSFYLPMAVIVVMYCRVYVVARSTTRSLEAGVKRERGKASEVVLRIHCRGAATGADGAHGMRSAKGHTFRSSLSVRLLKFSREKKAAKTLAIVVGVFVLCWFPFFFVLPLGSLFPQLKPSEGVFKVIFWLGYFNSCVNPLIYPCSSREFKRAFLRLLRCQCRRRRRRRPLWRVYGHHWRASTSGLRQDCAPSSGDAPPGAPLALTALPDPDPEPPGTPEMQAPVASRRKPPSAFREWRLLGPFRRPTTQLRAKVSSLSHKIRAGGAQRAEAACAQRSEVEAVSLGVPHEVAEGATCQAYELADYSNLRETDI
The class given is cell membranes, HEK293, Membrane. The conditions noted are these: for Ki: read-out: Ki.

Test [2] addresses Sodium-dependent dopamine transporter (Homo sapiens, UniProt Q01959). Nature of the test: DRUGMATRIX: Dopamine Transporter radioligand binding (ligand: [125I] RTI-55). The class given is cell membranes, CHO-K1, Membrane. The conditions noted are these: Not Active = under 50% inhibition at 10 µM.
Test [3] can be described thus: DRUGMATRIX: GABAA, Chloride Channel, TBOB radioligand binding (ligand: [3H] TBOB). The format is cell membranes, Rattus norvegicus, Wistar, Cerebral cortex, Membrane. The conditions noted are these: Not Active = under 50% inhibition at 10 µM.
Test [4] is described as follows: DRUGMATRIX: Glutamate, NMDA, Agonism radioligand binding (ligand: [3H] CGP-39653). The format is cell membranes, Rattus norvegicus, Wistar, Cerebral cortex, Membrane. The conditions noted are these: Not Active = under 50% inhibition at 10 µM.
The target of the next test is Histamine H2 receptor (Homo sapiens, UniProt P25021). The class given is cell membranes, CHO-K1, Membrane. The settings on record: cho-k1. Note: in other assays of this panel Not Active means under 50% inhibition at 10 µM.
Test [5] has as its target T2, Nitric oxide synthase, inducible (Mus musculus, UniProt P29477).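 Note: inhibition of iNOS enzyme activity measured with L-arginine as substrate; in other assays of this panel Not Active means under 50% inhibition at 10 µM.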
T2 sequence (P29477 whole entry): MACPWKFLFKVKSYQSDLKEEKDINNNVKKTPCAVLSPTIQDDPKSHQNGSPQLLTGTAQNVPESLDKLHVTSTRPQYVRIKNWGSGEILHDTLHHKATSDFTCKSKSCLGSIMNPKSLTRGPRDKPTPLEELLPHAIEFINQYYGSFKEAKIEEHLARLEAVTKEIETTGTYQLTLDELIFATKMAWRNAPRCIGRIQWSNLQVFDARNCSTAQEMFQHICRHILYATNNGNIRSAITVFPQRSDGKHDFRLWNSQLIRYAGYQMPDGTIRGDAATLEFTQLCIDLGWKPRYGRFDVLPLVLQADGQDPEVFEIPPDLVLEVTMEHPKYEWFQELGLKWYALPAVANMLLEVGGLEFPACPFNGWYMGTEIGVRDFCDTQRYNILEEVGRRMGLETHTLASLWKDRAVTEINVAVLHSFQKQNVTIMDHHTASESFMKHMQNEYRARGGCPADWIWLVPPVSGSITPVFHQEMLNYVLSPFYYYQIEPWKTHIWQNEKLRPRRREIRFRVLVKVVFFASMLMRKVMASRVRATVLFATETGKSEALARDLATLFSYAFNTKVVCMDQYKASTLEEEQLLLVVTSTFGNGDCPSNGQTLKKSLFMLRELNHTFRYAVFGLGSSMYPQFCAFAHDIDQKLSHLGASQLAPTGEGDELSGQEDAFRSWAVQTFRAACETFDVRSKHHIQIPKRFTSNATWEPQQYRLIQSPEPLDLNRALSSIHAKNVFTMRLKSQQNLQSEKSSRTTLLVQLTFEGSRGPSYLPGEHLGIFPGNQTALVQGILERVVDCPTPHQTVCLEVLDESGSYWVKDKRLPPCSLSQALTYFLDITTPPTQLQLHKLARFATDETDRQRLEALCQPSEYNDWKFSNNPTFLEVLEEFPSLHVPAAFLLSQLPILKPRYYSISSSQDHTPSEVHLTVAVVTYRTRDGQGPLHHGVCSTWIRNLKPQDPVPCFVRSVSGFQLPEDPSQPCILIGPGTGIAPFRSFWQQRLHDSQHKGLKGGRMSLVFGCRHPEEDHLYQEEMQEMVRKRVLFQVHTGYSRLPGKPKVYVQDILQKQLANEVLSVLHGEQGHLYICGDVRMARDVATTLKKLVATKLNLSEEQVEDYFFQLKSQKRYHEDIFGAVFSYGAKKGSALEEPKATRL
More on the design: species or system Escherichia coli.

Chain of Histamine H2 receptor (P25021 whole entry): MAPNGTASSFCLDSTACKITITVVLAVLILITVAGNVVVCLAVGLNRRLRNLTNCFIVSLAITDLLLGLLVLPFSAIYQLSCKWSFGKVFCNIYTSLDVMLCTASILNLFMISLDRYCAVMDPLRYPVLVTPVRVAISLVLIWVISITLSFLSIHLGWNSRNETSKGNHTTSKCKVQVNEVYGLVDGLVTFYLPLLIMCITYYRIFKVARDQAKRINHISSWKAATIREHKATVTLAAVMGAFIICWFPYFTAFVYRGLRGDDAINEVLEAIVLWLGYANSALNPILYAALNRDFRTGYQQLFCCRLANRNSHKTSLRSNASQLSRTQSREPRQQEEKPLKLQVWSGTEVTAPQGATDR
Chain of Sodium-dependent dopamine transporter (Q01959 whole entry): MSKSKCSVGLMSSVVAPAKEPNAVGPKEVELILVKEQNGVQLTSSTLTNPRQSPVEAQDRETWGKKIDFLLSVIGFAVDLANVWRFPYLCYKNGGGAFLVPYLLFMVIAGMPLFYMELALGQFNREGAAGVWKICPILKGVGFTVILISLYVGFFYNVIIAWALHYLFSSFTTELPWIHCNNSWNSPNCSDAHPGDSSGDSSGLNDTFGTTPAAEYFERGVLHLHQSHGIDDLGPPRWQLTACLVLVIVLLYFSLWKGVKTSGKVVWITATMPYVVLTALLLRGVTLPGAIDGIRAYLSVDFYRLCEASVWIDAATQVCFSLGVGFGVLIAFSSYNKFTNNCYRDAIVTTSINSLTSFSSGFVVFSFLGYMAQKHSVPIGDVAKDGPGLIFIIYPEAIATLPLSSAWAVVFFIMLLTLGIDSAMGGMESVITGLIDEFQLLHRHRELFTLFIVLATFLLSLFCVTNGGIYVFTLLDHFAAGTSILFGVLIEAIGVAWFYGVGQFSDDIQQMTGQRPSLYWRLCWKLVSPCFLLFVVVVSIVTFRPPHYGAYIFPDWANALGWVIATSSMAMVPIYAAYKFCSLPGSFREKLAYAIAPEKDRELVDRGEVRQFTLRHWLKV

On to `COc1cc(/C=C/C(=O)O)ccc1O` [FERULATE], for which the IC50 entry (in test [1] (hek293); in test [2] (cho-k1); in test [3]; in test [4]; at Histamine H2 receptor; in test [5]) was “Not Active” in each case. The inhibition constant Ki entry in test [3] and in test [4] was “Not Active” throughout.

Regarding `CC(C)(C#N)c1cc(Cn2cncn2)cc(C(C)(C)C#N)c1` [ANASTROZOLE], the IC50 result (in test [1] (hek293); in test [2] (cho-k1); in test [3]; in test [4]; on Histamine H2 receptor; in test [5]) was “Not Active” throughout. Moreover, the Ki result in test [3] and in test [4] was “Not Active” each time.

Regarding `COc1ccc(Cl)cc1C(=O)NCCc1ccc(S(=O)(=O)NC(=O)NC2CCCCC2)cc1` [GLYBURIDE], the IC50 entry (in test [1] (hek293); in test [2] (cho-k1); in test [3]; in test [4]; against Histamine H2 receptor; in test [5]) was “Not Active” in each case. In addition, the Ki result in test [3] and in test [4] was “Not Active” in each case.

`CC(C)NCC(O)COc1ccc(CC(N)=O)cc1` (centres undefined) [ATENOLOL]: the IC50 entry (in test [1] (hek293); in test [2] (cho-k1); in test [3]; in test [4]; at Histamine H2 receptor; in test [5]) was “Not Active” throughout. The Ki entry in test [3] and in test [4] was “Not Active” throughout.

Take `O=C(O)COC(=O)Cc1ccccc1Nc1c(Cl)cccc1Cl` [ACECLOFENAC]: the IC50 entry (in test [1] (hek293); in test [2] (cho-k1); in test [3]; in test [4]; against Histamine H2 receptor; in test [5]) was “Not Active” in each case. For the same compound, the Ki result in test [3] and in test [4] was “Not Active” each time.

`Cl.NC[C@H]1CC[C@H](C(=O)Oc2ccc(CCC(=O)O)cc2)CC1` [CETRAXATE HYDROCHLORIDE]: the IC50 entry (in test [1] (hek293); in test [2] (cho-k1); in test [3]; in test [4]; against Histamine H2 receptor; in test [5]) was “Not Active” each time. Also, the Ki entry in test [3] and in test [4] was “Not Active” throughout.

With `CC(=O)[C@]1(O)Cc2c(O)c3c(c(O)c2[C@@H](O[C@H]2C[C@H](N)[C@H](O)[C@H](C)O2)C1)C(=O)c1ccccc1C3=O` [IDARUBICIN], the IC50 entry (in test [1] (hek293); in test [2] (cho-k1); in test [3]; in test [4]; against Histamine H2 receptor; in test [5]) was “Not Active” in each case. Further, the Ki result in test [3] and in test [4] was “Not Active” in each case.

For `C[C@@H]1[C@H](O)[C@@H](C)/C=C/C=C/C=C/C=C/C=C/C=C/C=C/[C@H](O[C@@H]2O[C@H](C)[C@@H](O)[C@H](N)[C@@H]2O)C[C@@H]2O[C@](O)(C[C@@H](O)C[C@@H](O)[C@H](O)CC[C@@H](O)C[C@@H](O)CC(=O)O[C@H]1C)C[C@H](O)[C@H]2C(=O)O` [AMPHOTERICIN B], the IC50 result (in test [1] (hek293); in test [2] (cho-k1); in test [3]; in test [4]; at Histamine H2 receptor; in test [5]) was “Not Active” in each case. For the same compound, the Ki result in test [3] and in test [4] was “Not Active” in each case.

Take `O=C(O)c1ccccc1` [BENZOIC ACID]: the 50% inhibitory concentration (IC50) result (in test [1] (hek293); in test [2] (cho-k1); in test [3]; in test [4]; against Histamine H2 receptor; in test [5]) was “Not Active” each time. For the same compound, the Ki entry in test [3] and in test [4] was “Not Active” each time.

For `C[C@]12CC[C@@H](O)C[C@@H]1CC[C@@H]1[C@@H]2CC[C@]2(C)C(=O)CC[C@@H]12` [ANDROSTERONE], the IC50 entry (in test [1] (hek293); in test [2] (cho-k1); in test [3]; in test [4]; on Histamine H2 receptor; in test [5]) was “Not Active” throughout. Moreover, the Ki result in test [3] and in test [4] was “Not Active” in each case.

`NCC(CC(=O)O)c1ccc(Cl)cc1` (centres undefined) [BACLOFEN]: the IC50 entry (in test [1] (hek293); in test [2] (cho-k1); in test [3]; in test [4]; on Histamine H2 receptor; in test [5]) was “Not Active” each time. Further, the Ki entry in test [3] and in test [4] was “Not Active” each time.

As to `O=C(O)CO` [GLYCOLIC ACID], the IC50 entry (in test [1] (hek293); in test [2] (cho-k1); in test [3]; in test [4]; at Histamine H2 receptor; in test [5]) was “Not Active” in each case. Further, the Ki entry in test [3] and in test [4] was “Not Active” each time.

With `COc1ccccc1OCCNCC(O)COc1cccc2[nH]c3ccccc3c12` (centres undefined) [CARVEDILOL], the IC50 (in general, the concentration needed to halve the response being measured) was 1.8 nM in test [1] (read-out: IC50); 845 nM in test [2] (read-out: IC50); “Not Active” in test [3]; “Not Active” in test [4]; “Not Active” on Histamine H2 receptor; “Not Active” in test [5]. Also, the inhibition constant Ki (in general, the dissociation constant of the complex between target and ligand, obtained from inhibition or displacement) in test [1] is 0.883 nM; in test [2] (read-out: Ki), 671 nM; in test [3], “Not Active”; in test [4], “Not Active”.

Regarding `O=C(NCCN1CCOCC1)c1ccc(Cl)cc1` [MOCLOBEMIDE], the IC50 entry (in test [1] (hek293); in test [2] (cho-k1); in test [3]; in test [4]; at Histamine H2 receptor; in test [5]) was “Not Active” in each case. The Ki entry in test [3] and in test [4] was “Not Active” in each case.

`C=CCO` [ALLYL ALCOHOL]: the half-inhibitory concentration (IC50) result (in test [1] (hek293); in test [2] (cho-k1); in test [3]; in test [4]; against Histamine H2 receptor; in test [5]) was “Not Active” in each case. Besides, the Ki result in test [3] and in test [4] was “Not Active” throughout.

In the case of `CC(C)Cc1ccc([C@H](C)C(=O)O)cc1` [DEXIBUPROFEN], the IC50 entry (in test [1] (hek293); in test [2] (cho-k1); in test [3]; in test [4]; against Histamine H2 receptor; in test [5]) was “Not Active” in each case. Further, the Ki result in test [3] and in test [4] was “Not Active” throughout.

With `CNC[C@H](O)c1ccc(O)c(O)c1` [EPINEPHRINE], the IC50 in test [1] (read-out: IC50) was 449 nM; in test [2] (cho-k1), “Not Active”; in test [3], “Not Active”; against Histamine H2 receptor it was “Not Active”; in test [5], “Not Active”. Moreover, the Ki was 221 nM in test [1] and “Not Active” in test [3].

For `Cc1cc(C(C)(C)C)c(O)c(C)c1CC1=NCCN1` [OXYMETAZOLINE], the IC50 result (in test [2] (cho-k1); in test [3]; in test [4]; at Histamine H2 receptor; in test [5]) was “Not Active” each time. The inhibitory constant (Ki) result in test [3] and in test [4] was “Not Active” throughout.
